Source: patent US20220265657A1, “ADMINISTRATION METHOD AND DOSAGE REGIMEN FOR TREATMENT OF NEURODEGENERATIVE DISEASES USING TRAMETINIB AND MARKERS” (GENUV INC., priority 2019, published 2022)

What was measured:
SH-SY5Y cells = test: Western blot of SH-SY5Y cell lysates; format: cell-based; conditions: co-treatment with trametinib, in the presence of Aβ1-42 oligomers
Protocol: (§1) Cell culture: SH-SY5Y neuroblastoma cells were cultured at 37° C., 5% CO2., in Dulbecco's Modified Eagle Medium/Ham's F-12 nutrient mixture (DMEM/F12) (Invitrogen, Carlsbad, Calif.) supplemented with 10% heat-inactivated fetal bovine serum containing 100 units/ml penicillin, 100 μg/ml streptomycin. Primary cortical neuron cultures were derived from embryo day 18 (E18) from ICR mice. The dissociated cells were plated on glass cover slips coated with poly-D-lysine in Neurobasal medium supplemented with 2% B27 (Invitrogen), 100 units/ml penicillin, 100 μg/ml streptomycin, and 2 mM L-glutamine. Primary NSCs from normal mice were isolated from the subventricular zone (SVZ) of 8 week-old C57BL/6 mice brain. NSCs from adult Tg2576 mice brain were obtained from Seoul National University Hospital. The neurospheres were cultured as previously described (M. Y. Kim, B. S. Moon, K. Y. Choi, Isolation and maintenance of cortical neural progenitor cells in vitro. Methods Mol Biol 1018, 3-10 (2013)). For neurosphere culture from normal mice, the cells were dissociated from brain tissue and grown in N2 medium in 25 cm^2 flasks (SPL, Gyeonggi-do, Korea) in suspension. bFGF (20 ng/ml, Peprotech, Princeton, N.J.) and human EGF (20 ng/ml, Peprotech) were added to the media to allow the cells to form neurospheres. For analyses, NSCs were cultured as a monolayer. For differentiation of NSCs, the neurospheres were dissociated with TrypLE (Invitrogen), plated on 15 μg/ml poly-L-ornithine-(Sigma-Aldrich, St. Louis, Mo.) and 10 μg/ml fibronectin (Gibco)-coated plates, and cultured in bFGF- and EGF-depleted N2 medium for 2 days. For neurosphere culture from Tg2576 mice, the cells were grown in DMEM/F12 supplemented with B27 supplements in 75 cm^2 flasks (SPL) in suspension. bFGF (10 ng/ml) and human EGF (10 ng/ml) were added to the media to allow the cells to form neurospheres. For inducing differentiation and AP expression, the neurospheres were dissociated with pipetting, plated on 15 μg/ml poly-L-ornithine- and 10 μg/ml fibronectin (Gibco)-coated plates, and cultured in bFGF- and EGF-depleted medium for 2 days.
(§2) Lysates were centrifuged at 13,000 rpm for 20 min at 4° C., and the protein content in the supernatant was determined using the Bradford assay (Bio-rad, Hercules, Calif.). For subcellular fractionation, cells were lysed with lysis buffer (250 mM Sucrose, 20 mM HEPES, pH 7.4, 10 mM KCl, 1.5 mM MgCl2, 1 mM EGTA, 1 mM EDTA, 1 mM DTT) containing protease inhibitor for 30 min on ice, followed by centrifugation at 720 g for 5 min at 4° C. Supernatants were centrifuged at 15,000 rpm for 10 min at 4° C., and the resulting supernatant was used as the cytosol fraction. After centrifugation at 720 g for 5 min, pellets were washed with lysis buffer and dissolved in nuclear lysis buffer (50 mM Tris HCl, pH 8.0, 150 mM NaCl, 1% NP40, 0.5% sodium deoxycholate, 0.1% SDS, 10% glycerol) as the nuclear fraction. Protein from each sample was subjected to 8%˜15% SDS-PAGE, and the resolved proteins were transferred to nitrocellulose or polyvinylidene fluoride membrane. The membranes were blocked with 5% nonfat milk powder in Tris-buffered saline/Tween 20 (TBST) for 1 h at room temperature, then incubated with anti-phospho-ERK (Cell signaling), anti-ERK (Cell signaling), anti-LAMP1 (Abcam), anti-LC3 (Cell signaling), anti-cathepsin B (Cell signaling), anti-p62 (Cell signaling), anti-p62 (5114, Cell signaling), anti-phospho-mTOR (5536, Cell signaling), anti-mTOR (2983, Cell signaling), anti-phospho-ULK1 (14202, Cell signaling), anti-ULK1 (8054, Cell signaling), anti-TFEB (852501, Biolegend), and anti-GAPDH (Cell signaling) overnight at 4° C.

primary cortical neurons [1] = test: Dendritic spine formation in primary cortical neurons; format: cell-based, ICR mice; conditions: Aβ1-42 oligomer alone
Protocol: as §1, with “For inducing differentiation and AP expression, the neurospheres were dissociated with pipetting, plated on 15 μg/ml poly-L-ornithine- and 10 μg/ml fibronectin (Gibco)-coated plates, and cultured in bFGF- and EGF-depleted medium for 2 days.” left out

primary cortical neurons [2] = test: Western blot of primary cortical neurons; format: cell-based, ICR mice; conditions: Aβ1-42 oligomers alone
Protocol: as §2

| Compound | effect of trametinib on increasing mature cathepsin B and decreasing p62 (SH-SY5Y cells) | decrease in number of dendritic spines compared to vehicle treated group (CTL) (primary cortical neurons [1]) | decrease of mature cathepsin B level compared to non-treated neurons (CTL) (primary cortical neurons [2]) |
| --- | --- | --- | --- |
| CO/C1=C\C(C)=C\[C@@H](C)[C@@H](O)[C@@H](C)C/C(C)=C/C=C/[C@H](OC)[C@@H]([C@@H](C)[C@@H](O)[C@H](C)[C@@]2(O)C[C@@H](O)[C@H](C)[C@@H](C(C)C)O2)OC1=O [bafilomycin A1] | eliminated the effect of trametinib |  |  |
| Aβ1-42 oligomers: cytotoxic oligomers of Aβ1-42 used to induce neurotoxic conditions |  | 24% | 26% |
